Where a name gives a salt, the structure may show the parent alone.
SMILES | melting point
O=c1[nH]ncc2[nH]c(-c3ccc(OC(F)F)c(OC4CC4)c3)c(CCc3ccccc3)c12 [Example 21, 2-(3-Cyclopropoxy-4-difluoromethoxyphenyl)-3-phenethyl-1,5-dihydropyrrolo[2,3-d]pyridazin-4-one] | 199 to 201 °C
COc1ccc(-c2[nH]c3cn[nH]c(=O)c3c2Cl)cc1OC1CCC1 [Example 45, 3-Chloro-2-(3-cyclobutoxy-4-methoxyphenyl)-1,5-dihydropyrrolo[2,3-d]pyridazin-4-one] | 285 to 287 °C
O=c1[nH]ncc2[nH]c(-c3ccc(OC(F)F)c(OC4CC4)c3)c(Cc3ccc(F)cc3)c12 [Example 24, 2-(3-Cyclopropoxy-4-difluoromethoxyphenyl)-3-(4-fluorobenzyl)-1,5-dihydropyrrolo[2,3-d]pyridazin-4-one] | 193 to 195 °C
CC(C)(C)OCc1c(-c2ccc(OC(F)F)c(OC3CC3)c2)[nH]c2cn[nH]c(=O)c12 [Example 64, 3-(tert-Butoxymethyl)-2-(3-cyclopropoxy-4-difluoromethoxyphenyl)-1,5-dihydropyrrolo[2,3-d]pyridazin-4-one] | > 300 °C
N#Cc1cccc(Cc2c(-c3ccc(OC(F)F)c(OC4CC4)c3)[nH]c3cn[nH]c(=O)c23)c1 [Example 26, 3-(3-Cyanobenzyl)-2-(3-cyclopropoxy-4-difluoromethoxyphenyl)-1,5-dihydropyrrolo[2,3-d]pyridazin-4-one] | 130 to 135 °C
N#Cc1ccccc1Cc1c(-c2ccc(OC(F)F)c(OC3CC3)c2)[nH]c2cn[nH]c(=O)c12 [Example 25, 3-(2-Cyanobenzyl)-2-(3-cyclopropoxy-4-difluoromethoxyphenyl)-1,5-dihydropyrrolo[2,3-d]pyridazin-4-one] | > 300 °C
COc1ccc(-c2cc3c(=O)[nH]ncc3[nH]2)cc1OC1CCCC1 [Example 46, 2-(3-Cyclopentoxy-4-methoxyphenyl)-1,5-dihydropyrrolo[2,3-d]pyridazin-4-one] | 290 °C (dec.)
O=c1[nH]ncc2[nH]c(-c3ccc(OC(F)F)c(OC4CCC4)c3)c(Cl)c12 [Example 32, 3-Chloro-2-(3-cyclobutoxy-4-difluoromethoxyphenyl)-1,5-dihydropyrrolo[2,3-d]pyridazin-4-one] | 273 to 275 °C
CCC(C)OCc1c(-c2ccc(OC(F)F)c(OC3CC3)c2)[nH]c2cn[nH]c(=O)c12 (stereo not drawn) [Example 63, 3-(sec-Butoxymethyl)-2-(3-cyclopropoxy-4-difluoromethoxyphenyl)-1,5-dihydropyrrolo[2,3-d]pyridazin-4-one] | 103 to 106 °C
O=c1[nH]ncc2[nH]c(-c3ccc(OC(F)F)c(OC4CC4)c3)c(Cc3cccc(F)c3)c12 [Example 23, 2-(3-Cyclopropoxy-4-difluoromethoxyphenyl)-3-(3-fluorobenzyl)-1,5-dihydropyrrolo[2,3-d]pyridazin-4-one] | 208 to 210 °C
O=c1[nH]ncc2[nH]c(-c3ccc(OC(F)F)c(OC4CC4)c3)cc12 [Example 1, 2-(3-Cyclopropoxy-4-difluoromethoxyphenyl)-1,5-dihydropyrrolo[2,3-d]pyridazin-4-one] | 287 to 292 °C
COc1cccc(Cc2c(-c3ccc(OC(F)F)c(OC4CC4)c3)[nH]c3cn[nH]c(=O)c23)n1 [Example 28, 2-(3-Cyclopropoxy-4-difluoromethoxyphenyl)-3-(6-methoxy-2-pyridylmethyl)-1,5-dihydropyrrolo[2,3-d]pyridazin-4-one] | 224 to 226 °C
O=c1[nH]ncc2[nH]c(-c3ccc(OC(F)F)c(OC4CC4)c3)c(-c3ccccc3)c12 [Example 17, 2-(3-Cyclopropoxy-4-difluoromethoxyphenyl)-3-phenyl-1,5-dihydropyrrolo[2,3-d]pyridazin-4-one] | 138 to 143 °C
CCC(CC)OCc1c(-c2ccc(OC(F)F)c(OC3CC3)c2)[nH]c2cn[nH]c(=O)c12 [Example 65, 2-(3-Cyclopropoxy-4-difluoromethoxyphenyl)-3-(1-ethylpropoxymethyl)-1,5-dihydropyrrolo[2,3-d]pyridazin-4-one] | 133 to 162 °C
Cc1c(-c2ccc(OC(F)F)c3c2C=CC(C)(C)O3)[nH]c2cn[nH]c(=O)c12 (as salt: HCl) [Example 53, 2-(8-Difluoromethoxy-2,2-dimethyl-2H-chromen-5-yl)-3-methyl-1,5-dihydropyrrolo[2,3-d]pyridazin-4-one HCl adduct] | > 300 °C
O=c1[nH]ncc2[nH]c(-c3ccc(OC(F)F)c(OC4CC4)c3)c(-c3cn[nH]c3)c12 [Example 18, 2-(3-Cyclopropoxy-4-difluoromethoxyphenyl)-3-(4-pyrazolyl)-1,5-dihydropyrrolo[2,3-d]pyridazin-4-one] | 294 to 297 °C
O=C(O)c1cccc(Cc2c(-c3ccc(OC(F)F)c(OC4CC4)c3)[nH]c3cn[nH]c(=O)c23)c1 [Example 27, 3-(3-Carboxybenzyl)-2-(3-cyclopropoxy-4-difluoromethoxyphenyl)-1,5-dihydropyrrolo[2,3-d]pyridazin-4-one] | 155 to 163 °C
CC(C)Oc1cc(-c2cc3c(=O)[nH]ncc3[nH]2)ccc1OC(F)F [Example 39, 2-(4-Difluoromethoxy-3-isopropoxyphenyl)-1,5-dihydropyrrolo[2,3-d]pyridazin-4-one] | 269 to 273 °C

Results, then the molecule that gave them:

melting point | SMILES
104 to 107 °C | COCc1c(-c2ccc(OC(F)F)c(OC3CC3)c2)[nH]c2cn[nH]c(=O)c12 [Example 11, 2-(3-Cyclopropoxy-4-difluoromethoxyphenyl)-3-methoxymethyl-1,5-dihydropyrrolo[2,3-d]pyridazin-4-one]
294 to 295 °C | O=c1[nH]ncc2[nH]c(-c3ccc(OC(F)F)c(OCC4CC4)c3)cc12 [Example 35, 2-(3-Cyclopropylmethoxy-4-difluoromethoxyphenyl)-1,5-dihydropyrrolo[2,3-d]pyridazin-4-one]
256 to 258 °C | COc1ccc(-c2[nH]c3cn[nH]c(=O)c3c2Cl)cc1OCC1CC1 [Example 47, 3-Chloro-2-(3-cyclopropylmethoxy-4-methoxyphenyl)-1,5-dihydropyrrolo[2,3-d]pyridazin-4-one]
191 to 193 °C | CCCCCc1c(-c2ccc(OC(F)F)c(OC3CC3)c2)[nH]c2cn[nH]c(=O)c12 [Example 68, 2-(3-Cyclopropoxy-4-difluoromethoxyphenyl)-3-pentyl-1,5-dihydropyrrolo[2,3-d]pyridazin-4-one]
224 to 227 °C | CCc1c(-c2ccc(OC(F)F)c(OCC3CC3)c2)[nH]c2cn[nH]c(=O)c12 (as salt: HCl) [Example 37, 2-(3-Cyclopropylmethoxy-4-difluoromethoxyphenyl)-3-ethyl-1,5-dihydropyrrolo[2,3-d]pyridazin-4-one HCl adduct]
293 to 296 °C (dec.) | COc1ccc(-c2[nH]c3cn[nH]c(=O)c3c2Br)cc1OC1CC1 [Example 43, 3-Bromo-2-(3-cyclopropoxy-4-methoxyphenyl)-1,5-dihydropyrrolo[2,3-d]pyridazin-4-one]
208 to 210 °C | CCCc1c(-c2ccc(OC(F)F)c(OC3CC3)c2)[nH]c2cn[nH]c(=O)c12 [Example 6, 2-(3-Cyclopropoxy-4-difluoromethoxyphenyl)-3-propyl-1,5-dihydropyrrolo[2,3-d]pyridazin-4-one]
265 to 267 °C | CC(C)c1c(-c2ccc(OC(F)F)c(OC3CC3)c2)[nH]c2cn[nH]c(=O)c12 [Example 7, 2-(3-Cyclopropoxy-4-difluoromethoxyphenyl)-3-isopropyl-1,5-dihydropyrrolo[2,3-d]pyridazin-4-one]
194 to 197 °C | O=c1[nH]ncc2[nH]c(-c3ccc(OC(F)F)c(OC4CC4)c3)c(CCC3CC3)c12 [Example 70, 2-(3-cyclopropoxy-4-difluoromethoxyphenyl)-3-(2-cyclopropylethyl)-1,5-dihydropyrrolo[2,3-d]pyridazin-4-one]
248 to 262 °C | CC(C)Oc1cc(-c2[nH]c3cn[nH]c(=O)c3c2Cl)ccc1OC(F)F [Example 40, 3-Chloro-2-(4-difluoromethoxy-3-isopropoxyphenyl)-1,5-dihydropyrrolo[2,3-d]pyridazin-4-one]
293 to 294 °C | COc1ccc(-c2[nH]c3cn[nH]c(=O)c3c2Cl)cc1OC1CC1 [Example 42, 3-Chloro-2-(3-cyclopropoxy-4-methoxyphenyl)-1,5-dihydropyrrolo[2,3-d]pyridazin-4-one]
281 to 283 °C | O=c1[nH]ncc2[nH]c(-c3ccc(OC(F)F)c(OC4CC4)c3)c(Cl)c12 [Example 2, 3-Chloro-2-(3-cyclopropoxy-4-difluoromethoxyphenyl)-1,5-dihydropyrrolo[2,3-d]pyridazin-4-one]
245 to 246 °C | Cc1c(-c2ccc(OC(F)F)c(OC3CC3)c2)[nH]c2cn[nH]c(=O)c12 [Example 4, 2-(3-Cyclopropoxy-4-difluoromethoxyphenyl)-3-methyl-1,5-dihydropyrrolo[2,3-d]pyridazin-4-one]
170 to 172 °C | O=c1[nH]ncc2[nH]c(-c3ccc(OC(F)F)c(OC4CC4)c3)c(COCC3CC3)c12 [Example 59, 2-(3-Cyclopropoxy-4-difluoromethoxyphenyl)-3-cyclopropylmethoxymethyl-1,5-dihydropyrrolo[2,3-d]pyridazin-4-one]
176 to 179 °C | C=CCc1c(-c2ccc(OC(F)F)c(OC3CC3)c2)[nH]c2cn[nH]c(=O)c12 [Example 74, 2-(3-Cyclopropoxy-4-difluoromethoxyphenyl)-3-(2-propenyl)-1,5-dihydropyrrolo[2,3-d]pyridazin-4-one]
245 to 246 °C | C#CCc1c(-c2ccc(OC(F)F)c(OC3CC3)c2)[nH]c2cn[nH]c(=O)c12 [Example 71, 2-(3-Cyclopropoxy-4-difluoromethoxyphenyl)-3-(2-propynyl)-1,5-dihydropyrrolo[2,3-d]pyridazin-4-one]
190 to 191 °C | O=c1[nH]ncc2[nH]c(-c3ccc(OC(F)F)c(OC4CC4)c3)c(CO)c12 [Example 10, 2-(3-Cyclopropoxy-4-difluoromethoxyphenyl)-3-hydroxymethyl-1,5-dihydropyrrolo[2,3-d]pyridazin-4-one]
291 to 299 °C | COc1ccc(-c2[nH]c3cn[nH]c(=O)c3c2Cl)cc1OC(C)C [Example 48, 3-Chloro-2-(3-isopropoxy-4-methoxyphenyl)-1,5-dihydropyrrolo[2,3-d]pyridazin-4-one]

— patent US8450319B2, “Pyrrolopyridazinone compound” (Ube Industries, Ltd., priority 2006, dated 2013)
